Columns and labels:
female sexual response = tested on: female sexual response
Description: (§1) The application is preferably carried out 4-5 minutes before intercourse, but can also be repeated during intercourse itself whenever required.

male sexual response = tested on: male sexual response
Description: as §1

skin [1] = settings: in the concentrations provided by the present invention
human skin = settings: application on human skin; IJSPT Vol. 6 No. 2, 2011; cited from earlier work
skin [2] = settings: Norwegian Food Safety Authority risk profile / Council of Europe monograph 2008; cited from earlier work
[3] = women, alone, at least 0.5% up to 5% by weight, topical
[4] = men, alone, at least 0.5% up to 5% by weight, topical

CC1CCC(C(C)C)C(OC(=O)c2cccnc2)C1 (stereo not drawn) [menthyl nicotinate, 5-Methyl-2-(isopropyl) cyclohexyl nicotinate]
turgidity of the tissues / reddening or itching (female sexual response; in vivo): without however causing annoying reddening or itching
latency period (period of time between orgasms) (female sexual response; [3]): Decrease
number of orgasms (female sexual response; [3]): Multiple orgasms
stimulation of the clitoris (female sexual response; [3]): Intense and prolonged stimulation
time necessary for reaching orgasm (female sexual response; [3]): Decrease
times of foreplay (female sexual response; [3]): Decrease
duration of perception of cool tingling in the zone of application (female sexual response; women, depends on individual and concentration of active ingredient): up to one hour and more
turgidity of the tissues / reddening or itching (male sexual response; in vivo): without however causing annoying reddening or itching
flow of blood in the corpora cavernosa, turgidity and power of erection (male sexual response; [4]): A greater flow of blood
retardant and reinvigorating effect (male sexual response; [4]): A retardant and at the same reinvigorating effect
sexual stimulation (male sexual response; [4]): more intense
voluntary control of ejaculation (male sexual response; [4]): Greater ability
rubefacient and itching effect (skin [1]): does not exhibit any unpleasant rubefacient and itching effect

CC1CCC(C(C)C)C(O)C1 (stereo not drawn) [menthol]
flow of blood in the part treated topically (human skin): reduces the flow of blood

COC(=O)c1cccnc1 [methyl nicotinate]
concentration at which highly irritating to the skin in some cases (skin [2]): 0.00137-0.003%

Reference: patent US20150157615A1, “COMPOSITIONS AND METHOD FOR THE STIMULATION OF THE FEMALE AND MALE SEXUAL RESPONSE” (MULTICHEM S.A.S. DI GABRIELE SEGALLA, priority 2013, published 2015)
